A short description of data set [1]: Human liver microsome metabolic stability. In kind it is in vitro ADME. To be noted: human liver microsomes. Here is the method:
3.1 Human Liver Microsome Assay
300 μL of final incubation system: 30 μL of human liver microsomes (protein concentration: 5 mg/mL, XENOTECH, USA), 30 μL of NADPH (10 mM)+MgCl2 (5 mM), 3 μL of the substrate, i.e., the example compound (dissolved in 50% aqueous acetonitrile solution, 100 μM), and 237 μL of PBS buffer, wherein the proportion of the organic solvent (acetonitrile) was 0.5%. Each tube was added with 270 μL of a mixed solution of substrate and enzyme, and after being pre-incubated at 37° C. for 5 min, added with 30 μL of NADPH+MgCl2. Then 50 μL of the mixture was taken at 0 min, 15 min, 30 min and 60 min, and added with 300 μL of diazepam glacial acetonitrile (20 ng/mL) containing an internal standard to quench the reaction. The reaction mixture was vortexed for 5 min, and centrifuged (13,000 rpm, 4° C.) for 10 min. 100 μL of supernatant was pipetted into a sample vial, from which 1 μL of supernatant was injected and analyzed by LC-MS/MS, and the residual percentage was calculated.
A general note: Liver microsomes are a subcellular fraction often used to study metabolism.

The nature of data set [2]: In vivo pharmacokinetic assay on mouse. The following applies: ICR mice; for MRT last: read-out: MRT(0-t). On the procedure: EXPERIMENTAL EXAMPLE 4: IN VIVO PHARMACOKINETIC ASSAY ON MOUSE
ICR mice weighing 18-22 g were randomly grouped into 9 mice in each group after being fed for 3-5 days, and administered intragastrically with related compound at a dose of 10 mg/kg, and injected intravenously with the test compound at a dose of 1 mg/kg, respectively. The test animals (ICR mice) were fasted for 12 h before administration and fed for 4 h after administration, and water was freely drunk before and after the experiment and during the experiment. After intragastric administration, 0.1 mL of the blood at the orbit was collected at 0.25 h (15 min), 0.5 h (30 min), 1 h, 2 h, 4 h, 6 h, 8 h, 10 h and 24 h, and after intravenous injection, 0.1 mL of the blood at the orbit was collected at 0.083 h (5 min), 0.167 h (10 min), 0.5 h (30 min), 1 h, 2 h, 6 h, 8 h, 10 h and 24 h. Each mouse was sampled at 3-4 time points, and 3 mice were sampled at each time point. Whole blood was collected and placed in centrifuge tubes containing EDTA-K2 and sodium fluoride, then transferred to a 4° C. centrifuge within 30 min and centrifuged at 4000 rpm for 10 min to separate the plasma. All plasma was collected and immediately stored at −20° C. for testing. 20 μL of a plasma test sample and a standard curve sample were pipetted into 300 μL of acetonitrile solution containing an internal standard (diazepam […]), and the mixture was shaken and mixed for 5 min, and centrifuged at 13,000 rpm for 10 min. 80 μL of supernatant was diluted with 80 μL of ultrapure water, and the mixture was mixed well, form which 1 μL of the sample was pipetted and analyzed by LC/MS/MS, and a chromatogram was recorded. Oral and intravenous exposure of the compounds disclosed herein was evaluated by pharmacokinetic experiments in mice and the results are shown in Table 4.

A further data set has as its system OCI-LY10 cells. Description: In vivo pharmacodynamic study, OCI-LY10 xenograft. Also noted: species or system NOD-SCID mice. To be noted: for TGI (%): tumor growth inhibition from tumor weight, 23 days; for TGI (%) / d0 TV Mean ± SD: 50 mg/kg bid i.g.; for d0 TV Mean ± SD: tumor volume at day 0 (grouping); for d21 TV Mean ± SD: tumor volume at day 21, 50 mg/kg bid i.g.; for d23 TV Mean ± SD: tumor volume at day 23, 50 mg/kg bid i.g. Here is the method:
EXPERIMENTAL EXAMPLE 5: IN VIVO PHARMACODYNAMIC STUDY
OCI-LY10 cells were subcutaneously grafted (concentration: 1×10^8/mL×0.1 mL/mice) in NOD-SCID mice at the right side armpit (the inoculated site was shaved upon grafting) under aseptic conditions. After subcutaneous grafting, the animals were grouped when the tumor volume reached about 100-300 mm^3:
Model group: vehicle: 6 mice; I-1: 6 mice, 50 mg/kg, bid, i.g.; I-3: 6 mice, 50 mg/kg, bid, i.g.
The vehicle or compound was administered by intragastric administration at a volume of 10 mL/kg, twice daily, for 23 days. The tumor volume was measured 2-3 times per week, and the mice were weighed at the same time, with the data recorded. Animal behavior was observed daily. After all administration was completed, the animals were executed, stripped of tumors and weighed.
The tumor volume and the tumor growth inhibition were calculated using the following formulas: Tumor volume(TV)=(Length×Width^2)/2. Tumor growth inhibition(TGI)=(1−tumor weight in treatment group/tumor weight in model group)×100%.

Molecules are shown by their SMILES. Read-outs that look alike come from different tables or passages of the source.

Regarding `CC#CC(=O)N1[C@@H]2COC[C@@H]2C[C@H]1c1nc(-c2ccc(C(=O)Nc3ccccn3)cc2)c2c(N)nccn12` [Compound I-1, 4-(8-amino-3-((2S,3aR,6aS)-1-(but-2-ynoyl)hexahydro-1H-furo[3,4-b]pyrrol-2-yl)imidazo [1,5-a]pyrazin-1-yl)-N-(pyridin-2-yl)benzamide], the “Human (HLM) Remaining % (T = 60 min)” value in data set [1] was determined as 89%. For the same compound, the t1/2z in data set [2] (ig 10 mg/kg) is 142 min. In data set [2] (iv 1 mg/kg), this compound returned a CLz of 340 mL/min/kg and a t1/2z of 43.8 min. Besides, the bioavailability in data set [2] (mouse, plasma, oral, ig 10 mg/kg vs iv 1 mg/kg, read-out: Absolute bioavailability F %) stood at 72.4%. In data set [2] (mouse, plasma, po, ig 10 mg/kg), the AUC(0-inf) is 315 ng·h/mL, the area under the curve AUC(0-t) was 315 ng·h/mL, the Cmax worked out at 92.7 ng/mL and the Tmax was 15 min. Further, the MRT last in data set [2] (mouse, plasma, po, ig 10 mg/kg) was 184 min. Besides, in data set [2] (mouse, plasma, iv 1 mg/kg), the area under the curve AUC(0-inf) is 43.6 ng·h/mL, the area under the curve AUC(0-t) was found to be 43.6 ng·h/mL and the MRT last came to 31.2 min. Also, in data set [2] (mouse, plasma, iv 1 mg/kg, read-out: Vz), the Vd amounted to 21.5 L/kg. Besides, in the data set with OCI-LY10 cells, the “TGI (%)” value came to 79.4%, the “d0 TV Mean ± SD” value is 176 ± 35 mm^3, the “d21 TV Mean ± SD” value is listed as 742 ± 109 mm^3 and the “d23 TV Mean ± SD” value stood at 847 ± 189 mm^3.
In the case of `C=CC(=O)N1[C@@H]2COC[C@@H]2C[C@H]1c1nc(-c2ccc(C(=O)Nc3ccccn3)cc2)c2c(N)nccn12` [Compound I-3, 4-(3-((2S,3AR,6AS)-1-ACRYLOYLHEXAHYDRO-1H-FURO[3,4-B]PYRROL-2-YL)-8-AMINOIMIDAZO [1,5-A]PYRAZIN-1-YL)-N-(PYRIDIN-2-YL)BENZAMIDE], the “Human (HLM) Remaining % (T = 60 min)” value in data set [1] amounted to 74%. In the data set with OCI-LY10 cells, the “TGI (%)” value was determined as 84.1%, the “d0 TV Mean ± SD” value is on record as 177 ± 16 mm^3, the “d21 TV Mean ± SD” value worked out at 645 ± 202 mm^3 and the “d23 TV Mean ± SD” value stood at 647 ± 343 mm^3.
In the case of `CC#CC(=O)N1[C@@H]2COC[C@@H]2C[C@H]1c1nc(-c2ccc(C(=O)Nc3cc(C(F)(F)F)ccn3)cc2F)c2c(N)nccn12` [Compound I-4, 4-(8-AMINO-3-((2S,3AR,6AS)-1-(BUT-2-YNOYL)HEXAHYDRO-1H-FURO[3,4-B]PYRROL-2-YL)IMIDAZO[1,5-A]PYRAZIN-1-YL)-3-FLUORO-N-(4-(TRIFLUOROMETHYL)PYRIDIN-2-YL)BENZAMIDE], in data set [1], the “Human (HLM) Remaining % (T = 60 min)” value was 15%.
The same measure, in the same setting: the value for `Nc1nccn2c([C@@H]3C[C@H]4COC[C@H]4N3C(=O)C3CC3)nc(-c3ccc(C(=O)Nc4cc(C(F)(F)F)ccn4)cc3F)c12` [Compound I-7, 4-(8-AMINO-3-((2S,3AR,6AS)-1-(CYCLOPROPANECARBONYL)HEXAHYDRO-1H-FURO[3,4-B]PYRROL-2-YL)IMIDAZO[1,5-A]PYRAZIN-1-YL)-3-FLUORO-N-(4-(TRIFLUOROMETHYL)PYRIDIN-2-YL)BENZAMIDE] was 29.9%.

The term bioavailability denotes dose-corrected exposure relative to a reference, in per cent. For orientation: AUC(0-inf) means total exposure, with the tail of the curve extrapolated. What is called AUC(0-t) is the area under the concentration-time curve up to a stated or last time point. Lower therefore signals low exposure. Usually Cmax stands for the highest concentration seen after dosing. The Tmax is the time at which the peak concentration occurs.

These data come from patent publication US11891405B2, “Furo[3,4-b]pyrrole-containing BTK inhibitor” (CHIA TAI TIANQING PHARMACEUTICAL GROUP CO., LTD., priority 2018, dated 2024).
